Where no end group is shown, it is not given here.

The test system of test [1] is U87MG cells. In words: Wound-healing assay, U87MG. The format is cell-based, human. The settings on record: weak acid pH 7.0. Here is the method:
(§1) Wound-healing assay was performed. Cells were seeded into a 24-well plate and grown to ˜80% confluence. The cell monolayer was scratched with 200 μl sterile pipette tip and treated with ECF with or without PcTX1 for 3 hours. The original wound areas at 0 hour were photographed with microscope (Olympus FSX100, 4×). After 3 hours, cells were then incubated with culture medium containing 1% FBS for 24 hours. 24 hours later, images were taken from the same location of the original wound areas and the migration distance was measured with Image J software. The wound-healing rate was calculated as: the ratio of wound closure=[(Area of original wound at 0 h−Area of wound after healing at 24 h)/Area of original wound at 0 h]×100%.
(§2) Next, the study examined whether knock-down of ASIC1 affects cell proliferation in the presence or absence of extracellular weak acid. MTT assay was performed to detect the cell viability at 24 h and 72 h with and without acid treatment both in siRNA-Control and siRNA-ASIC1 groups. […] The study further examined whether knockdown of ASIC1 has an effect on the migration of U87MG cells. […] The effect of ASIC1 knockdown on migration was also assessed by transwell.

The subject of test [2] is A172 cells. Nature of the test: Cell viability (MTT) proliferation assay, A172. It is filed as cell-based, human. The settings on record: 20 nM PcTX1, 3 h in pH 7.4 or 7.0 ECF; 24 h, 48 h and 72 h. Here is the method: (§3) Cells were seeded in 96-well plates overnight and then incubated with pH 7.4 or 7.0 ECF in the absence or presence of 20 nM PcTX1 for 3 h, and then changed to culture medium containing 5% FBS incubating for 24 h, 48 h and 72 h. After the treatments, cell viability was measured by MTT Cell Proliferation Assay Kit according to the manufacturer's instructions. The absorbance values at 540 nm were detected by spectrometer (Molecular devices).
(§4) Severe acidosis (e.g. pH 6.0) promotes the proliferation of some type of glioma cells. This study first tested the effect of weak acid on the proliferation of A172 and U87MG cells. The study used either pH 7.4 or pH 7.0 solution to pretreat cells for 3 h, and then changed back to medium containing 5% FBS. The cell viability was measured at 24 h, 48 h and 72 h after acid treatment by MTT assay.

Test [3] has as its system A172 cells. Nature of the test: Wound-healing assay, A172. The format is cell-based, human. The settings on record: weak acid pH 7.0. Here is the method: as §1
For test [4], the system named is U87MG cells. In words: Cell viability (MTT) proliferation assay, U87MG. The format is cell-based, human. The settings on record: 20 nM PcTX1 with weak acid (pH 7.0), 3 h; different time points. Here is the method: as §3, §4, §2
The test system of test [5] is A172 cells. Nature of the test: Transwell migration assay, A172. The format is cell-based, human. The settings on record: PcTX1 20 nM, pH 7.0 for 3 h, counted after 24 h. The method, then:
(§5) The assay is based on two compartments separated by a mem-brane with an accurately defined pore size. Cell transwell chambers with 8-μm pore size of poly-carbonate membrane filters (Corning, USA) were first pre-coated with poly-L-ornithine over-night. Before plating cells, chambers were incubated with serum-free culture medium for 30 minutes. After that, cells were seeded with culture medium containing 1% FBS in the upper-chambers that were immersed to 750 μl whole medium (DMEM with 10% FBS). After incubating for another 24 hours, some cells on the upper surface of the filter migrated through the membrane to the lower surface of the filter. Cells on the upper face of the filter were wiped out thoroughly with cotton swabs, and those attached on the lower surface were fixed with 4% paraformaldehyde for 15 min. They were then stained with 0.5% crystal violet for 10 min, and let the membrane air dry. The cells on the lower surface of the membrane filter were counted under a microscope in 3-4 random fields with 10× magnification. Cell numbers in each group were normalized to the control groups. Assays were performed in at least 3 independent experiments.
To further examine the role of ASIC1 in glioma cell migration, the study performed a transwell migration assay using inserts with an 8-μm pore size. […]

The test system of test [6] is U87MG cells. In words: Transwell migration assay, U87MG. The format is cell-based, human. The settings on record: PcTX1, pH 7.0 for 3 h, counted after 24 h. Here is the method:
as §5, with “experiments. […]” for “experiments.”
Next, the study examined whether knock-down of ASIC1 affects cell proliferation in the presence or absence of extracellular weak acid. […] The effect of ASIC1 knockdown on migration was also assessed by transwell.

The next test addresses T1, ASIC1 (Homo sapiens, UniProt P78348).
T1 construct: drop of extra-cellular pH from 7.4 to 6.0 can induce transient inward currents in A172 and U87MG cells; endogenous in cells; host or cells: U87MG human glioblastoma cells (ATCC)
T1 sequence (P78348 1-528): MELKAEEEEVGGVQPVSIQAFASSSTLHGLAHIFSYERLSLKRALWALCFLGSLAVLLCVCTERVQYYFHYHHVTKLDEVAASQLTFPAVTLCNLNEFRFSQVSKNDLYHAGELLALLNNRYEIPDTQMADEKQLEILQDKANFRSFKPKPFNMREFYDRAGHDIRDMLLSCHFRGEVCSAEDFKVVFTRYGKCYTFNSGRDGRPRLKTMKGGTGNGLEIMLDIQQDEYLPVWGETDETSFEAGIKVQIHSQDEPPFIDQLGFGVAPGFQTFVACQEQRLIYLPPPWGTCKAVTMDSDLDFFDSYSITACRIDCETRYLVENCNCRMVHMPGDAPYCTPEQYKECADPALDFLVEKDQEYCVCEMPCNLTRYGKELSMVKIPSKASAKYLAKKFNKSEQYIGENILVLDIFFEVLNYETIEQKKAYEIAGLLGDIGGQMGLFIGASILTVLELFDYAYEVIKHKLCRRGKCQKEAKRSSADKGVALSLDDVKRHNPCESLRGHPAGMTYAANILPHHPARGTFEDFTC
In words: Whole-cell patch-clamp recording of acid-activated currents. The format is cell-based. The settings on record: PcTX1 20 nM perfusion for several minutes; pH drop 7.4 to 6.0; U87MG cells; n=5. Here is the method:
Whole-cell currents were recorded by patch-clamp techniques. The currents were recorded with an Axopatch 200B amplifier and low-pass filtered at 2 KHz, digitized using Digidata 1320 DAC unit. Cells were clamped at a holding potential of −80 mV. The patch pipettes were made from thin walled borosilicate glass micropipettes (1.5 mm diameter, World Precision Instruments, Sarasota, FL) by a micropipette puller (PP83; Tokyo, Japan). The range of pipette resistance was 3-5 MΩ when filled with intracellular solu-tion contained 140 mM CsF, 1 mM CaCl2, 2 mM MgCl2, 10 mM HEPES, 11 mM EGTA, 2 mM tet-raethylammonium chloride, and 4 mM MgATP; pH 7.3 adjusted with CsOH, 290 to 300 mOsm adjusted with sucrose. Cells were perfused with an extracellular fluid (ECF) contained 140 mM NaCl, 5.4 mM KCl, 2 mM CaCl2, 1 mM MgCl2, 10 mM Glucose, and 10 mM HEPES; pH 7.4 and 6.0 adjusted with NaOH, 320-330 mOsm. […] The data were recorded and analyzed with pClamp and Sigma Plot software.
To determine whether ASIC1 is expressed in human glioma cells, we first investigated the expression of ASIC1 protein in A172 and U87-MG cells by Western blotting. […] Next, the study detected the existence of acid-activated currents and the effect of pharmacologic agents on the currents. Acid-activated currents were recorded by whole cell patch-clamp. […]
(In patch-clamp work, channel activity is measured electrically.)

For the substance “PcTX1 (LECWKRRRSFEVCVPKTPKT; ends and bridges not checked; cysteine pairing not given here)”, the “effect on acid-induced migration of U87MG cells (wound-healing and transwell, summary)” value with U87MG cells [1] is “effectively blocked”. For the same substance, the “effect on proliferation of A172 cells (MTT)” value in the test on A172 cells [2] is reported as “no influence”. In the test on A172 cells [3], the “effect on acid-induced migration of A172 cells (wound-healing and transwell, summary)” value is reported as “effectively blocked”. The “effect on proliferation of U87MG cells (MTT)” value in the test on U87MG cells [4] is given as “no clear effect”. In the test with A172 cells [5], the “effect on acid induced migration of A172 cells (transwell)” value was “completely inhibited”. Also, the “effect on acid-induced increase of migrated U87MG cells (transwell)” value in the test on U87MG cells [6] is “completely blocked”. Besides, in the test with ASIC1, the “decrease of the peak of acid-activated currents” value came out at 80%.

The values above are taken from patent US20240390457A1, “COMPOSITION AND METHOD OF TREATING BRAIN CANCER” (Morehouse School of Medicine, priority 2023, published 2024).
